Assay results as given in US8633314B2, “Forms of a multicyclic compound” (Cephalon, Inc., priority 2009, dated 2014).

What was measured:
Format in all cases: physicochemical
[1] = Solid state stress stability (storage; XRPD and stability-indicating HPLC); conditions: 40° C./75% RH
Method: Typically 10 μL aliquots of the sample solutions were diluted to 1 mL with acetonitrile and the assay concentrations were determined from an average of duplicate injections using the following HPLC method. The purity and impurity analyses are done using conventional HPLC.
Crystallization studies were performed to investigate polymorphism in 48 different solvents. Solvents were selected on the basis of acceptability (ICH Class 3 and 2) and to give a range of dielectric constants, dipole moments and functional groups. Two starting materials were selected: Form A0 and Lot 7 (a mixture of Form A0, Form HC0 and Form HD0). When possible, full characterization was performed on the new forms that were generated during the polymorphism screening of Compound I. This characterization consisted of: XRPD, thermal analysis, DVS, storage at 40° C./75% RH and purity.
Stress stability studies were performed to get a timely impression of the influence of temperature and humidity on form stability. A stability-indicating HPLC assay method was developed for quantitation of Compound I and its major degradation product, 7-methoxy-1,2,3,11-tetrahydro-5,11-diaza-benzo[a]trindene-4,6-dione, previously referred to as “Compound E”.

[2] = Dynamic vapor sorption (DVS)
Method: Gravimetric vapor sorption experiments were carried out using the DVS-HT instrument (Surface Measurement Systems, London, UK). This instrument measures the uptake and loss of vapor gravimetrically using a recording ultra-microbalance with a mass resolution of ±0.1 μg. The vapor partial pressure (±1.0%) around the sample was controlled by mixing saturated and dry carrier gas streams using electronic mass flow controllers. The desired temperature was maintained at ±0.1° C.
The samples (10-25 mg) were placed into the DVS-HT instrument at the desired temperature. Two types of dynamic vapor sorption experiments were performed: • 1. The sample was initially dried in stream of dry air (<0.1% relative humidity (RH)) for 20 hours to establish a dry mass and exposed to two 0-90% RH cycles (in 10% RH increments). • 2. The sample was exposed at 90% RH for 20 hours and exposed to two 90-0% RH cycles (in 10% RH increments). Infrared Spectrometry (FTIR)

[3] = Thermodynamic solubility of monohydrate forms in organic solvents
Method: Experiments were set up to measure the thermodynamic solubility of these monohydrate forms at room temperature and 55° C. in ethyl acetate, MTBE and 1-pentanol.

[4] = Irregular DVS (90 to 0% RH), listed as HD0
[5] = Regular DVS (0 to 90% RH), listed as HD0

- Chemical Stability (HPLC (post 4 weeks at 40° C./75% RH (Area %))) ([1]; 4 weeks): 92.3 Area %
- HPLC % Compound I ([1]; 0 days): 93.5% Compound I,
- XRPD (form found) ([1]; 0 days): HD0
- HPLC % Compound I ([1]; 7 days): 92.2% Compound I,
- XRPD (form found) ([1]; 7 days): HD0
- HPLC % Compound I ([1]; 13 days): 92.3% Compound I,
- XRPD (form found) ([1]; 13 days): HD0
- HPLC % Compound I ([1]; 28 days): 92.3% Compound I,
- XRPD (form found) ([1]; 28 days): HD0
- Total uptake at 90% RH ([2]; Irregular DVS (90 to 0% RH)): 0.8%
- changes by XRPD re-analysis after DVS ([2]; Irregular DVS (90 to 0% RH)): No significant changes
- At 75% RH uptake [2, 4]: 0.4%
- Total uptake at 90% RH [2, 4]: 0.8%
- Total uptake at 90% RH ([2]; Regular DVS (0 to 90% RH)): 0.6%
- changes by XRPD re-analysis after DVS ([2]; Regular DVS (0 to 90% RH)): No significant changes
- At 75% RH uptake [2, 5]: 0.4%
- Total uptake at 90% RH [2, 5]: 0.6%
- solubility relative to the other hydrated polymorph (Form HC0) ([3]; ethyl acetate, MTBE, 1-pentanol, RT and 55° C.): always higher
Structure (SMILES): COc1cccc2[nH]c3c4c(c5c(c3c12)C(=O)N(CN1CCN(C)CC1)C5=O)CCC4 [Form HD0, 4,5,6,7-tetrahydro-11-methoxy-2-[(4-methyl-1-piperazinyl)methyl]-1H-cyclopenta[a]pyrrolo[3,4-c]carbazole-1,3(2H)-dione]
- relative thermodynamic stability in solution ([3]; between room temperature and 55° C.): more thermodynamically stable than Form HC0 and form HA0
